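Cultured in 96-well plates, cells were exposed to test compound for 48 hours across five concentrations. GI50: concentration for 50% inhibition of growth. At the TGI there is no net growth.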
Experiments:
Test in all cases: NCI anticancer screen, dose series, 48 h
[1] = system: MCF7 breast
[2] = system: COLO 205 colon
[3] = system: ACHN renal
[4] = system: DU-145 prostate
[5] = system: MOLT-4 leukemia
[6] = system: A549 NSCLC
[7] = system: SR leukemia
[8] = system: SK-OV-3 ovarian
[9] = system: SK-MEL-28 melanoma
[10] = system: SNB-19 CNS
[11] = system: HT29 colon
[12] = system: UACC-257 melanoma
[13] = system: NCI-H23 lung
[14] = system: BT-549 breast
[15] = system: NCI-H460 lung
[16] = system: NCI/ADR-RES ovarian
[17] = system: NCI-H522 lung
[18] = system: SF-268 CNS
[19] = system: MALME-3M melanoma
[20] = system: IGROV1 ovarian
[21] = system: HOP-62 NSCLC
[22] = system: T-47D breast
[23] = system: SK-MEL-2 melanoma
[24] = system: CCRF-CEM leukemia
[25] = system: SNB-75 CNS
[26] = system: PC-3 prostate
[27] = system: MDA-MB-231 breast
[28] = system: LOX IMVI melanoma
[29] = system: U251 CNS
[30] = system: M14 melanoma
[31] = system: CAKI-1 renal
[32] = system: HCC-2998 colon
[33] = system: SF-539 CNS
[34] = system: UO-31 renal
[35] = system: OVCAR-4 ovarian
[36] = system: OVCAR-8 ovarian
[37] = system: OVCAR-5 ovarian
[38] = system: 786-0 renal
[39] = system: SW-620 colon
[40] = system: MDA-MB-435
[41] = system: TK-10 renal
[42] = system: SN12C renal
[43] = system: HOP-92 NSCLC
[44] = system: HS 578T breast
[45] = system: K-562 leukemia
[46] = system: HL-60(TB) leukemia
[47] = system: SF-295 CNS
[48] = system: HCT-15 colon
[49] = system: OVCAR-3 ovarian
[50] = system: A498 renal
[51] = system: NCI-H226 lung
[52] = system: RPMI-8226 leukemia
[53] = system: EKVX NSCLC
[54] = system: UACC-62 melanoma
[55] = system: RXF 393 renal
[56] = system: HCT-116 colon
[57] = system: KM12 colon
[58] = system: SK-MEL-5 melanoma

For `N#C/C(=C\c1c(-c2ccccc2)[nH]c2ccccc12)S(=O)(=O)c1ccccc1`, the GI50 [1] was 2.15 µM, the TGI [1] was 18.4 µM and the GI50 [2] was 1.38 µM. The TGI [2] was 17 µM, the GI50 [3] was 6.65 µM and the TGI [3] was 75 µM. The GI50 [4] was 2.4 µM, the TGI [4] was 20.1 µM and the GI50 [5] was 1.68 µM. For the same molecule, the TGI [5] was over 100 µM, the GI50 [6] was 3.74 µM and the TGI [6] was over 100 µM. For the same molecule, the GI50 [7] was 17.3 µM, the TGI [7] was over 100 µM and the GI50 [8] was 6.39 µM. It also gave a TGI [8] of over 71.5 µM, a GI50 [9] of 5.97 µM and a TGI [9] of 28.8 µM. The GI50 [10] was 7.08 µM, the TGI [10] was over 88.2 µM and the GI50 [11] was 0.594 µM. The TGI [11] was over 41.5 µM, the GI50 [12] was 17.9 µM and the TGI [12] was 56.2 µM. For the same molecule, the GI50 [13] was 4.26 µM, the TGI [13] was over 58.5 µM and the GI50 [14] was 10 µM. It also gave a TGI [14] of over 56.9 µM, a GI50 [15] of 2.73 µM and a TGI [15] of 18.3 µM. The GI50 [16] was 1.06 µM, the TGI [16] was 43.4 µM and the GI50 [17] was 4.51 µM. The TGI [17] was 25.5 µM, the GI50 [18] was 3.4 µM and the TGI [18] was 20.5 µM. It also gave a GI50 [19] of 6.77 µM, a TGI [19] of over 55.8 µM and a GI50 [20] of 3.28 µM. For the same molecule, the TGI [20] was 25.9 µM, the GI50 [21] was 8.06 µM and the TGI [21] was over 100 µM. The GI50 [22] was 3.82 µM, the TGI [22] was 33.8 µM and the GI50 [23] was 12.5 µM. The TGI [23] was 45.3 µM, the GI50 [24] was 2.38 µM and the TGI [24] was 18.4 µM. It also gave a GI50 [25] of 1.67 µM, a TGI [25] of 29.4 µM and a GI50 [26] of 3.34 µM. It also gave a TGI [26] of over 53.9 µM, a GI50 [27] of 3.55 µM and a TGI [27] of 33.7 µM. For the same molecule, the GI50 [28] was 4.47 µM, the TGI [28] was 25.5 µM and the GI50 [29] was 2.49 µM. The TGI [29] was 20.1 µM, the GI50 [30] was 2.66 µM and the TGI [30] was 38.2 µM. It also gave a GI50 [31] of 5.48 µM, a TGI [31] of over 63 µM and a GI50 [32] of 10.9 µM. It also gave a TGI [32] of 34.3 µM, a GI50 [33] of 2.48 µM and a TGI [33] of 9.51 µM. The GI50 [34] was 6.54 µM, the TGI [34] was over 61.7 µM and the GI50 [35] was 5.47 µM. The TGI [35] was over 100 µM, the GI50 [36] was 5.82 µM and the TGI [36] was over 78 µM. The GI50 [37] was 18.2 µM, the TGI [37] was 98.1 µM and the GI50 [38] was 8.46 µM. The TGI [38] was over 100 µM, the GI50 [39] was 0.544 µM and the TGI [39] was 20.5 µM. The GI50 [40] was 0.287 µM, the TGI [40] was 3.77 µM and the GI50 [41] was 5.08 µM. It also gave a TGI [41] of over 54.3 µM, a GI50 [42] of 5.24 µM and a TGI [42] of 71.8 µM. The GI50 [43] was 8.88 µM, the TGI [43] was 69.8 µM and the GI50 [44] was 8.76 µM. The TGI [44] was over 26.8 µM, the GI50 [45] was 0.346 µM and the GI50 [46] was 1.27 µM. The TGI [46] was 5.34 µM, the GI50 [47] was 2.21 µM and the TGI [47] was 14.6 µM. The GI50 [48] was 1.07 µM, the TGI [48] was 34.6 µM and the GI50 [49] was 1.14 µM. The TGI [49] was 4.41 µM, the GI50 [50] was 7.6 µM and the TGI [50] was over 58.7 µM. It also gave a GI50 [51] of 4.06 µM, a TGI [51] of 37.8 µM and a GI50 [52] of 0.557 µM. The TGI [52] was 6.88 µM, the GI50 [53] was 5.49 µM and the TGI [53] was over 64.8 µM. The GI50 [54] was 2.38 µM, the TGI [54] was 24.9 µM and the GI50 [55] was 3.43 µM. For the same molecule, the TGI [55] was over 27.4 µM, the GI50 [56] was 1.72 µM and the TGI [56] was over 76.6 µM. It also gave a GI50 [57] of 0.625 µM, a TGI [57] of 13.9 µM and a GI50 [58] of 1.82 µM. The TGI [58] was 11.5 µM.

Reference: PubChem BioAssay (NCI)
